The text below walks through data of US20260242392A1, “ARYL TRICYCLIC STING AGONISTS AND USE THEREOF” (SHENZHEN GENUINE BIOTECHNOLOGY CO., LTD., priority 2023, published 2026).

The target in the first data set is T1, Sting-HAQ (Homo sapiens, UniProt Q86WV6, G230A/H232R/R293Q/R71H).
T1 construct: host or cells: HEK293-HAQ Luc reporter cell line
T1 sequence (Q86WV6 whole entry R71H/G230A/H232R/R293Q): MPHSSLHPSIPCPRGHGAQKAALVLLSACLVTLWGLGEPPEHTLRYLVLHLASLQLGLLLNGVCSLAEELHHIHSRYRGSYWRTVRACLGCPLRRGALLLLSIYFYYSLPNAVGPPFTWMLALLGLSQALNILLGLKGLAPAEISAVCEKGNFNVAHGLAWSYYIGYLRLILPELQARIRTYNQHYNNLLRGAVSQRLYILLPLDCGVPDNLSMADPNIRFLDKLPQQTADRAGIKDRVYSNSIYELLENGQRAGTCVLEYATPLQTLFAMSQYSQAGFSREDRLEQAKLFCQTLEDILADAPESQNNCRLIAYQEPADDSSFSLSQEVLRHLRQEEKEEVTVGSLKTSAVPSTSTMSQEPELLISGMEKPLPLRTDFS
Nature of the data set: HEK293-HAQ Luc reporter gene assay (Steady-Glo luciferase). In kind it is cell-based. To be noted: 24 h incubation; read-out: HEK293-HAQ Luc Report Assay (24 h) EC50. The method, then:
Test Principle: The HEK293-HAQ Luc reporter cell line utilizes the chemiluminescent reaction property of luciferase binding to its substrate beetle luciferin. The regulatory elements of the Sting-HAQ gene transcription are cloned upstream/downstream of the firefly luciferase gene to construct a luciferase recombinant plasmid. The recombinant plasmid is then transfected into HEK293 cells. After treatment with compounds, the cells are lysed, and the luciferase activity is measured using the Steady-Glo® detection system (Cat #E2550) manufactured by Promega Corporation. The effect of compounds on the Sting-HAQ regulatory elements is determined based on the level of luciferase activity. The Steady Glo® Luciferase Assay System enables high-throughput evaluation of the degree of activation of reporter cell lines by compounds through the activity of luciferase in mammalian cells, and provides long-term stable luminescence when used with reporter cell lines. The detection system can sustain a signal half-life of more than 5 hours in the test cell culture medium, enabling uniform measurement without sample pretreatment.
Test Method: Complete medium (DMEM+10% FBS+1% P/S) was prepared. The Hek293-HAQ Luc reporter cell line was resuscitated and passaged twice. Cells in logarithmic growth phase were collected by centrifugation, counted, and resuspended to an appropriate concentration. The cell suspension was seeded into a 96-well plate at a density of 20000 cells/well, with 100 µL of the cell suspension added per well. Test compounds were prepared into stock solutions with DMSO, and serially diluted 3-fold with DMSO starting from the highest concentration of 100 mM to obtain 9 concentration gradients. The test compounds were diluted 47.62-fold with culture medium, and 5 μL of each dilution was added to the 96-well plate containing 100 μL of cells. To Min control wells were added 5 μL of DMSO-cell culture medium mixture (with a final DMSO concentration of 0.1%), while Max control wells received 5 μL of a positive reference compound. The plate was incubated at 37° C. in an incubator with 5% carbon dioxide and relative humidity above 90% for 24 h. Subsequently, 75 μL/well of […] was added to terminate the reaction. After shaking at 305 rpm for 10 min, the plates were detected on Envision. The […] value RLU of each well was read, and the activation rate was calculated according to the formula: Activation %=(Sample−Ave_L)/(Ave_H−Ave_L)×100, where Ave_L: RLU Min (0.1% DMSO), Ave_H: RLU Max (positive reference compound). The activation rate, Activation % (Y), corresponding to each concentration (X), was entered in EXCEL. The half-maximal effective concentration EC50 value of each compound was calculated according to the built-in four-parameter fitting formula Y=Bottom+(Top−Bottom)/(1+10^((LogEC50−X)*HillSlope)) using the XLfit plug-in.
As for `O=C(O)CCC(=O)c1cc2c(ccc3[nH]ncc32)s1`, the 50% effective concentration (EC50) was > 100 µM.
`C[Si](C)(C)CCOCn1ncc2c3cc(C(=O)CCC(=O)O)sc3ccc21`: the EC50 was > 100 µM.
Same read-out and setting: under `C[Si](C)(C)CCOCn1cc2c(ccc3sc(C(=O)CCC(=O)O)cc32)n1` stands > 100 µM; under `Cn1ncc2c3cc(C(=O)CCC(=O)O)sc3ccc21`, > 100 µM; under `Cn1cc2c(ccc3sc(C(=O)CCC(=O)O)cc32)n1`, 41.8 µM.
The same measure, in the same setting: the value for `COc1cc2sc(C(=O)CCC(=O)O)cc2c2c1OCC2` was 7.87 µM; that for `COc1cc2sc(C(=O)CCC(=O)O)cc2c2c1OCCO2` was > 100 µM; that for `COc1cc2sc(C(=O)CCC(=O)O)cc2c2nc(C(C)C)oc12` was > 100 µM.
As for `CCc1nc2c(o1)c(OC)cc1sc(C(=O)CCC(=O)O)cc12`, the concentration giving a half-maximal response (EC50) stood at 36 µM.
Same read-out and setting: the value for `COc1cc2sc(C(=O)CCC(=O)O)c(C)c2c2ncoc12` was 58 µM.
On the same count and under the same terms, the value for `COc1cc2sc(C(=O)CC(C)C(=O)O)c(C)c2c2ncoc12` (centres unmarked) was 92 µM; that for `COc1cc2sc(C(=O)CCC(=O)O)cc2c2nc(C3CC3)oc12` was 90.7 µM.
Same read-out and setting: the value for `COc1cc2sc(C(=O)CCC(=O)O)cc2c2ccoc12` was 2.52 µM; that for `COc1cc2sc(C(=O)CC(C)C(=O)O)c(C)c2c2nc(N)oc12` (centres unmarked) was > 100 µM; that for `COc1cc2sc(C(=O)CCC(=O)O)c(C)c2c2ccoc12` was 29.8 µM.
Consider `COc1cc2sc(C(=O)CCC(=O)O)cc2c2cnn(C)c12`, for which the concentration giving a half-maximal response (EC50) is > 100 µM.
On the same count and under the same terms, under `COc1cc2sc(C(=O)CCC(=O)O)cc2c2cc(C)oc12` stands 1.04 µM; under `COc1cc2sc(C(=O)CC(C)C(=O)O)cc2c2ccoc12` (centres unmarked), 2.2 µM.
The same measure, in the same setting: the value for `COc1cc2sc(C(=O)CCC(=O)O)c(C)c2c2cc(C)oc12` was 19 µM.
Same read-out and setting: the value for `COc1cc2sc(C(=O)CC(C)C(=O)O)cc2c2cc(C)oc12` (centres unmarked) was 1.2 µM; that for `COc1cc2sc(C(=O)CCC(=O)O)c(C)c2c2nc(N)oc12` was > 100 µM; that for `CCC(CC(=O)c1cc2c(cc(OC)c3ocnc32)s1)C(=O)O` (centres unmarked) was 0.308 µM.
Turning to `COc1cc2sc(C(=O)CCC(=O)O)cc2c2nc[nH]c12`, the concentration giving a half-maximal response (EC50) is > 100 µM.
Still for that read-out and setting: under `COc1cc2sc(C(=O)CCC(=O)O)cc2c2c1ncn2C` stands > 100 µM; under `COc1cc2sc(C(=O)CCC(=O)O)cc2c2ncn(C)c12`, > 100 µM.
In the case of `COc1cc2sc(C(=O)CCC(=O)O)cc2c2cn(C)nc12`, the EC50 came to 49 µM.
The same measure, in the same setting: under `COc1cc2sc(C(=O)CCC(=O)O)cc2c2cnoc12` stands > 100 µM; under `COc1cc2sc(C(=O)CCC(=O)O)cc2c2nc(N)oc12`, > 100 µM.
On the same count and under the same terms, under `COc1cc2sc(C(=O)CCC(=O)O)cc2c2ccn(C)c12` stands > 100 µM.
For the compound `COc1cc2sc(C(=O)CC(C)C(=O)O)cc2c2nc(N)oc12` (centres unmarked), the concentration giving a half-maximal response (EC50) is > 100 µM.
Same read-out and setting: the value for `COc1cc2sc(C(=O)C[C@@H](C)C(=O)O)cc2c2ncoc12` was 5.81 µM; that for `COc1cc2sc(C(=O)CCC(=O)O)cc2c2c1CCC2` was > 100 µM; that for `COc1cc2sc(C(=O)CCC(=O)O)cc2c2ocnc12` was 2.5 µM.
Still for that read-out and setting: under `COc1cc2sc(C(=O)CCC(=O)O)cc2c2cc(F)oc12` stands 0.792 µM; under `CCC(CC(=O)c1cc2c(cc(OC)c3occc32)s1)C(=O)O` (centres unmarked), 0.979 µM.
With `CCC(CC(=O)c1cc2c(cc(OC)c3oc(C)nc32)s1)C(=O)O` (centres unmarked), the EC50 is 0.326 µM.
The same measure, in the same setting: the value for `CCC(CC(=O)c1cc2c(cc(OC)c3oc(C)cc32)s1)C(=O)O` (centres unmarked) was 0.565 µM; that for `COc1cc2sc(C(=O)CCC(=O)O)cc2c2ccsc12` was 10.7 µM.
For `COc1cc2sc(C(=O)CC(C)C(=O)O)nc2c2nc(C)oc12` (centres unmarked), the EC50 is 3.32 µM.
Same read-out and setting: under `COc1cc2sc(C(=O)CCC(=O)O)nc2c2nc(C)oc12` stands 18 µM; under `COc1cc2sc(C(=O)C(C)CC(=O)O)nc2c2nc(C)oc12` (centres unmarked), 59.9 µM; under `CC[C@H](CC(=O)c1cc2c(cc(OC)c3oc(C)cc32)s1)C(=O)O`, 4.46 µM.
The same measure, in the same setting: the value for `CC[C@@H](CC(=O)c1cc2c(cc(OC)c3oc(C)cc32)s1)C(=O)O` was 0.24 µM; that for `COc1cc2sc(C(=O)CC(C)C(=O)O)cc2c2cc(F)oc12` (centres unmarked) was 0.57 µM; that for `COc1cc2sc(C(=O)CC(C)C(=O)O)nc2c2cc(C)oc12` (centres unmarked) was 2.34 µM.
Same read-out and setting: under `COc1cc2sc(C(=O)C[C@H](C)C(=O)O)nc2c2nc(C)oc12` stands 4.18 µM; under `COc1cc2sc(C(=O)C[C@@H](C)C(=O)O)nc2c2nc(C)oc12`, 67.7 µM; under `CCC(CC(=O)c1cc2c(cc(OC)c3oc(F)cc32)s1)C(=O)O` (centres unmarked), 0.823 µM.
As for `COc1cc2sc(C(=O)C[C@@H](C)C(=O)O)cc2c2cc(F)oc12`, the EC50 came out at 6.87 µM.
In the case of `CC[C@@H](CC(=O)c1cc2c(cc(OC)c3oc(F)cc32)s1)C(=O)O`, the 50% effective concentration (EC50) was 0.352 µM.
Still for that read-out and setting: under `CC[C@H](CC(=O)c1cc2c(cc(OC)c3oc(F)cc32)s1)C(=O)O` stands 4.1 µM.
As to `[2H]c1c(C)oc2c(OC)cc3sc(C(=O)C[C@H](C)C(=O)O)cc3c12`, the half-maximal effective concentration (EC50) is 0.313 µM.
The same measure, in the same setting: under `COc1cc2sc(C(=O)C[C@@H](C)C(=O)O)cc2c2c(F)c(C)oc12` stands 1.51 µM; under `[2H]C([2H])([2H])Oc1cc2sc(C(=O)C[C@H](C)C(=O)O)cc2c2cc(F)oc12`, 0.263 µM.
Regarding `C[C@@H](CC(=O)c1cc2c(cc(O)c3oc(F)cc32)s1)C(=O)O`, the 50% effective concentration (EC50) was determined as 29.3 µM.
Turning to `COc1cc2sc(C(=O)CCC(=O)O)cc2c2ncoc12` [drawing 622], the EC50 was determined as 1.23 µM.
On to `COc1cc2sc(C(=O)CCC(=O)O)cc2c2nc(C)oc12` [drawing 626], for which the 50% effective concentration (EC50) stood at 1.58 µM.
In the case of `COc1cc2sc(C(=O)CC(C)C(=O)O)cc2c2ncoc12` (centres unmarked) [drawing 631], the concentration giving a half-maximal response (EC50) turned out to be 1.12 µM.
Still for that read-out and setting: the value for `COc1cc2sc(C(=O)C[C@H](C)C(=O)O)cc2c2ncoc12` [drawing 651] was 0.16 µM.
As for `CC[C@@H](CC(=O)c1cc2c(cc(OC)c3ocnc32)s1)C(=O)O` [drawing 659], the EC50 turned out to be 0.302 µM.
`COc1cc2sc(C(=O)C[C@H](C)C(=O)O)cc2c2cc(C)oc12` [drawing 660]: the half-maximal effective concentration (EC50) came out at 0.341 µM.
Still for that read-out and setting: the value for `COc1cc2sc(C(=O)C[C@H](C)C(=O)O)cc2c2cc(F)oc12` [drawing 673] was 0.465 µM.
The same measure, in the same setting: under `COc1cc2sc(C(=O)C[C@H](C)C(=O)O)cc2c2c(F)c(C)oc12` [drawing 678] stands 0.19 µM.

Tested on in a further data set: not listed separately
Nature of the data set: Pharmacokinetic (PK) study in ICR mice, IV and PO. Conditions: ICR, mouse, plasma, iv, 2 mg/kg.
Experimental: The doses for IV and PO were 2 mg/kg and 5 mg/kg, respectively. Blood was collected at different time points after IV and PO administration and placed in heparinized tubes. Plasma was separated and frozen in a −20° C. refrigerator. Plasma was processed and then analyzed by LCMS/MS. Pharmacokinetic parameters of drug administration were calculated using a non-compartmental model in WinNonlin 8.2 software.
On to `COc1cc2sc(C(=O)CCC(=O)O)cc2c2ncoc12` [Compound 1, 4-(4-methoxythieno[2′,3′:5,6]benzo[1,2-d]oxazol-7-yl)-4-oxobutanoic acid], for which the AUC(0-t) came out at 660 ng·h/mL, the Vd stood at 0.76 L/kg, the clearance came out at 50.3 mL/min/kg and the half-life is 0.658 h.
The like results for `COc1cc2sc(C(=O)C[C@H](C)C(=O)O)cc2c2c(F)c(C)oc12` [Compound 59] were, in that order, 5500 ng·h/mL, 0.191 L/kg, 6.03 mL/min/kg and 2.35 h.
`COc1cc2sc(C(=O)CCC(=O)O)cc2c2nc(C)oc12` [Example 6, 4-(4-methoxy-2-methylthieno[2′,3′:5,6]benzo[1,2-d]oxazol-7-yl)-4-oxobutanoic acid] had an AUC(0-t) of 4240 ng·h/mL, a Vd of 0.264 L/kg, a clearance of 7.85 mL/min/kg and a half-life of 1.11 h.

The same data set, now with this note: ICR, mouse, plasma, po, 5 mg/kg.
With `COc1cc2sc(C(=O)CCC(=O)O)cc2c2ncoc12` [Compound 1, 4-(4-methoxythieno[2′,3′:5,6]benzo[1,2-d]oxazol-7-yl)-4-oxobutanoic acid], the AUC(0-t) is 757 ng·h/mL, the Cmax turned out to be 1270 ng/mL, the bioavailability worked out at 47% and the half-life was 1.56 h.
The like results for `COc1cc2sc(C(=O)C[C@H](C)C(=O)O)cc2c2c(F)c(C)oc12` [Compound 59] were, in that order, 5180 ng·h/mL, 7700 ng/mL, 38% and 1.1 h.
Take `COc1cc2sc(C(=O)CCC(=O)O)cc2c2nc(C)oc12` [Example 6, 4-(4-methoxy-2-methylthieno[2′,3′:5,6]benzo[1,2-d]oxazol-7-yl)-4-oxobutanoic acid]: the AUC(0-t) came out at 3680 ng·h/mL, the Cmax was 4280 ng/mL, the bioavailability came out at 42.5% and the half-life was 2.64 h.

Still in this data set, the particulars now being: mouse PK, injection 2 mg/kg and oral 5 mg/kg.
As for `COc1cc2sc(C(=O)C[C@H](C)C(=O)O)cc2c2c(F)c(C)oc12` [Compound 59], the “clearance in vivo compared to MAS-2” value is given as “lower clearance” and the “exposure in vivo compared to MAS-2” value is on record as “higher exposure”.
